We go through 3 compounds from paper PMC7308271, “Discovery of a new class of orthosteric antagonists with nanomolar potency at extrasynaptic GABAA receptors” (Scientific Reports, 2020).

Like-named read-outs stand apart in the source and are kept apart here.

What all share (assay type): cell-based
The target of test [1] is T1, human α6β2δ GABAΑ receptor (Homo sapiens, UniProt P47870+Q16445).
T1 construct: expressed in transfected cells; host or cells: δ-HEK (HEK293 Flp-In stably expressing human δ), transiently transfected with α and β 1:1
T1 sequence (Q16445 20-453, one chain of several): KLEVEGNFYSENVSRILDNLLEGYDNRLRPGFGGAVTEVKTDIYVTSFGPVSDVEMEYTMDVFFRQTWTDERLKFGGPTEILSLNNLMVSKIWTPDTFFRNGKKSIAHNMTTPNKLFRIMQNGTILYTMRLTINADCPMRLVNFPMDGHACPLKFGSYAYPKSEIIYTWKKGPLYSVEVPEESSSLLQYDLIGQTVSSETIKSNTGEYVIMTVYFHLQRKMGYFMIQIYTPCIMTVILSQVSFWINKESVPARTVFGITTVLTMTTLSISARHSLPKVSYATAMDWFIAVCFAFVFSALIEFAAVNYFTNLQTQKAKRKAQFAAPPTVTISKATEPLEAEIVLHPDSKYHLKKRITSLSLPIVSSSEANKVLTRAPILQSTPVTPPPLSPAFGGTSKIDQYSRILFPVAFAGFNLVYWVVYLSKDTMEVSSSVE
Put plainly: FMP assay at α6β2δ GABAA receptors in HEK cells. As to the method: (§1) HEK293 cells were maintained in DMEM containing GlutaMAX-I, supplemented with 10% FBS and 1% penicillin-streptomycin and incubated at 37 °C and a humidity of 5% CO2. For expression of δ-containing GABAΑ receptors, a HEK293 Flp-In^ΤΜ cell line stably expressing the human GABAΑ δ-subunits (referred to as δ-HEK) was used and the γ-containing subtypes was expressed in a background HEK293 Flp-In^ΤΜ cell line stably expressing the G-protein coupled peptide receptor NPBWR2 (referred to as HEK background)[26], both positively selected for using 200 μg/mL hygromycin B. α1β2γ2 receptors were stably expressed in a HEK293 cell line maintained as above but with no selection (gift from Marianne L. Jensen, Neurosearch).
(§2) To express recombinant GABAΑ receptors human α1, α2, α3, α5, α6, β2, γ2 (pcDNA3.1/Zeo) and α4, β1 (pUNIV)[26] subunit cDNA were transiently transfected into either δ-HEK or HEK background cells. δ-HEK cells were transfected with α- and β-subunits in a 1:1 ration whereas HEK background cells were transfected with α-, β- and γ-subunits in a 1:1:2 ratio. Human BGT1 (pcDNA5/FRT)[43] was transiently transfected into the δ-HEK cell line. δ-HEK cells transfected for whole-cell patch-clamp recordings were co-transfected with green fluorescent protein (GFP) as well as α- and β-subunits in a 0.5:1:1 ratio (0.8 μg + 1.6 μg + 1.6 μg in a 6 cm dish) in order to identify transfected cells. The transfection was carried out using Polyfect as transfection reagent according to the manufactures protocol expect for using half the recommended volume of Polyfect.
The FMP assay was performed as previously described with a few modifications. […] Data was obtained as changes in fluorescence units (∆RFU) by measuring emission at 560 nm caused by excitation at 530 nm. […]
Data obtained in the FMP assay are given as relative changes in fluorescence units (ΔRFU) by subtracting the average of the baseline fluorescence signal from the peak fluorescence signal after compound addition. […]

For test [2], the target named is T2, human α4β2δ GABAΑ receptor (Homo sapiens, UniProt P47870+P48169).
T2 construct: expressed in transfected cells; host or cells: δ-HEK (HEK293 Flp-In stably expressing human δ), transiently transfected with α and β 1:1
T2 sequence (P48169 36-554, one chain of several): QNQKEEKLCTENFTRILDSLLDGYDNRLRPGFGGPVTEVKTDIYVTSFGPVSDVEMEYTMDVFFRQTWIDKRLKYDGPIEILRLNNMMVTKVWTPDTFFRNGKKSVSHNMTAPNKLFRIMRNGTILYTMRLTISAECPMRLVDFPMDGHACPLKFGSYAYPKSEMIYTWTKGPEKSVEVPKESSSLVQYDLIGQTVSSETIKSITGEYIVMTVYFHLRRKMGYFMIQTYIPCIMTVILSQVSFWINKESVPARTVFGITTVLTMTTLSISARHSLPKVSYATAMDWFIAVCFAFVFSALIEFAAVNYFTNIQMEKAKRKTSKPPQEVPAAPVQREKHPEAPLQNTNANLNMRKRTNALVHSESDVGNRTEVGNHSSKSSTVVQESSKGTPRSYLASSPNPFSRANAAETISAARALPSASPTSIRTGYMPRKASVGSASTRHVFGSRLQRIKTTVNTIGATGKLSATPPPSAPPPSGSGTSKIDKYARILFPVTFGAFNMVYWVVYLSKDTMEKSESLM
Put plainly: FMP assay at α4β2δ GABAA receptors in HEK cells. As to the method: as §1, §2
(§3) The FMP assay was performed as previously described with a few modifications. Briefly, HEK cells were transfected as described[26] and 16–20 hours later plated (50,000 cells/well in DMEM medium) into clear-bottomed black 96-well plates coated with poly-D-lysine and the assay performed 20–28 hours later. The assay protocol including the FMP blue dye incorporation into membranes was exactly as described in Falk-Petersen et al.[26]. […] Data was obtained as changes in fluorescence units (∆RFU) by measuring emission at 560 nm caused by excitation at 530 nm. Unless otherwise mentioned in the text or figure legends experiments were performed in at least three independent experiments each using three technical replicates. Due to an observed edge effect for the FMP assay, outer wells were not used except for the screening.
Data obtained in the FMP assay are given as relative changes in fluorescence units (ΔRFU) by subtracting the average of the baseline fluorescence signal from the peak fluorescence signal after compound addition. All raw traces were inspected manually and peak signals resulting from compound/buffer addition together with signal artefacts were omitted from the analysis. […]

The target of test [3] is T3, human α1β2δ GABAΑ receptor (Homo sapiens, UniProt P14867+P47870).
T3 construct: expressed in transfected cells; host or cells: δ-HEK (HEK293 Flp-In stably expressing human δ), transiently transfected with α and β 1:1
T3 sequence (P14867 28-456): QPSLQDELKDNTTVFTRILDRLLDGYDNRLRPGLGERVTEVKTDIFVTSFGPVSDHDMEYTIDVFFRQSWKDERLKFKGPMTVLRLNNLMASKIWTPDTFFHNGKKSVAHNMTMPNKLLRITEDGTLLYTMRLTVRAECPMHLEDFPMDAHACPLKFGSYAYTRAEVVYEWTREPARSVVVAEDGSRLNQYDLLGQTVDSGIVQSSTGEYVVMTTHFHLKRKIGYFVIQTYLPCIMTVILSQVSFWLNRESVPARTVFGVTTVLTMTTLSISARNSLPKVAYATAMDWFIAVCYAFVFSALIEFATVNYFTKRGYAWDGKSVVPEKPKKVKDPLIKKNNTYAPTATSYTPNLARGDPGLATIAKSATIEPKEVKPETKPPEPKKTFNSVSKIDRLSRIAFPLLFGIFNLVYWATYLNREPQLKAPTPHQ
T3 sequence (P47870 25-512 limits assumed): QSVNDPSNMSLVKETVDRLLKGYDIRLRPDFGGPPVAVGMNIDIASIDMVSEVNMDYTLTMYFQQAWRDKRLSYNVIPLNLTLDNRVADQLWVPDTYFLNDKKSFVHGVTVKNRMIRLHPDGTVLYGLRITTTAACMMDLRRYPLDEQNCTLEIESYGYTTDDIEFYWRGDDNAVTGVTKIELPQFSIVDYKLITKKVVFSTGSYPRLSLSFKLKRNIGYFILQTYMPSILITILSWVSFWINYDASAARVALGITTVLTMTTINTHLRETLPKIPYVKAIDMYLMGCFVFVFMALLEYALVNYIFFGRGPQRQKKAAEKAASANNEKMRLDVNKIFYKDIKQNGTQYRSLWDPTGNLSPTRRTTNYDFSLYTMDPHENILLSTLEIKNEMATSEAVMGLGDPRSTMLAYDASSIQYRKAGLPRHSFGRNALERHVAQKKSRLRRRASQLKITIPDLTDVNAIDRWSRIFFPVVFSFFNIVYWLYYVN
T3 sequence (O14764 25-452 partner): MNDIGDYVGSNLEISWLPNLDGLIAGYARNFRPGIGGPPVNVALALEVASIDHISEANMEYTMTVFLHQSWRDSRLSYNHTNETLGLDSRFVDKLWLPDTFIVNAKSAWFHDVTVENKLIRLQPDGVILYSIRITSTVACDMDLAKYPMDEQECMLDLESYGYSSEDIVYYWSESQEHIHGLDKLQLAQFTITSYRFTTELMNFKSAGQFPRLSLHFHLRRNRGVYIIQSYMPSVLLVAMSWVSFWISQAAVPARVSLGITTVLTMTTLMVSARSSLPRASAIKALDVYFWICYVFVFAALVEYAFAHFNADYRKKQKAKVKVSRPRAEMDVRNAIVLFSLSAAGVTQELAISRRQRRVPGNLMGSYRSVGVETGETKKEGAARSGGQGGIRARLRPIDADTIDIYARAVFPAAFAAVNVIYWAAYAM
Put plainly: FMP assay at α1β2δ GABAA receptors in HEK cells. The protocol: as §1, §2, §3
Data obtained in the FMP assay are given as relative changes in fluorescence units (ΔRFU) by subtracting the average of the baseline fluorescence signal from the peak fluorescence signal after compound addition. All raw traces were inspected manually and peak signals resulting from compound/buffer addition together with signal artefacts were omitted from the analysis.
The concentration-response curves obtained in the FMP assay for both agonists (determining EC50 values) and antagonists (determining IC50 values) were fitted using the four-parameter concentration-response model: Response=bottom+top−bottom/1+10^[(logEC50-A)⋅nH] EC/IC50 values describe the concentration resulting in the half-maximal response (halfway between top and bottom), and nΗ is the Hill coefficient. […] Gaddum Schild analysis was performed using GraphPad Prism version 8.2.1 (GraphPad Software Inc., San Diego, CA, USA). EC50/IC50 values obtained in the FMP assay are given as means ± SEM from at least three independent experiments with three technical replicates, as specified in the individual figure legends.

[4] abbreviates: read-out: pIC50 ± SEM (converted).
Where [5] appears, read: antagonist activity vs GABA EC80 10–14 μM, mean, read-out: IC50.
The mark [6] stands for this setting: vs GABA EC80, read-out: pIC50 ± SEM (converted).

As for `NCCCC(=O)O` [GABA], the “GABA EC80” value in test [1] (α6β2δ, calculated from GABA potencies) is 3.0 µM; in test [2] (α4β2δ, calculated from GABA potencies), 0.80 to 1.0 µM; in test [3] (calculated from GABA potencies, used in antagonist tests), 10 to 14 µM.
With `O=C(Nc1cccc(C(=O)N2CCC3(CCNCC3)CC2)c1)c1cccs1` [compound 018, N-(3-(3,9-diazaspiro[5.5]undecane-3-carbonyl)phenyl)thiophene-2-carboxamide], the IC50 in test [1] (setting [4]) is 0.331 µM; in test [2] (read-out: IC50) it was 0.068 µM; in test [3] (setting [5]), 0.24 µM; in test [3] (setting [6]), 0.245 µM. Besides, the “increased potency at α4β2δ compared to α1β2γ2” value in test [2] (IC50 68 nM vs 790 nM) was found to be 12 times.
In the case of `CC(=O)Nc1cccc(C(=O)N2CCC3(CCNCC3)CC2)c1` [compound 2027, N-(3-(3,9-diazaspiro[5.5]undecane-3-carbonyl)phenyl)acetamide], the IC50 was 4.13 µM in test [1] (read-out: IC50), 0.363 µM in test [2] (setting [4]), 6.68 µM in test [3] (setting [5]) and 6.76 µM in test [3] (setting [6]). Besides, in test [3], the “potency reduction of 2027 compared to 018” value was 28 times.
